This passage reports IC50 results from patent US12281122B1, “PI3K inhibitors” (Cogent Biosciences, Inc., priority 2023, dated 2025).

In experiment [1] the test system is T47D (PI3Kα-H1047R) cell line. Nature of the experiment: HTRF phospho-AKT(S473) cell assay in T47D cells. The class given is cell-based, human. To be noted: Homo sapiens, 2 hours compound incubation. A digest of the protocol: (§1)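 Cells plated overnight (T47D in RPMI/10% FBS/0.2 units/mL insulin; SKBR3 in McCoy's 5A/10% FBS), then given 12-point 1:3 compound series (top 5 μM T47D, 10 μM SKBR3; ≤0.5% DMSO) for 2 h at 37° C. SKBR3 stimulated with 70 ng/ml PDGF-BB for final 15 min. Lysate pAKT(S473) by HTRF; IC50 calculated.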
Background: Time-resolved FRET reads energy transfer from a long-lived donor to a nearby acceptor.

Experiment [2] deals with SKBR3 (PI3Kα-Wild Type) cell line. Kind of experiment: HTRF phospho-AKT(S473) cell assay in SKBR3 cells. To be noted: Homo sapiens, SK-BR-3, 2 hours compound incubation, PDGF-BB stimulated. The class given is cell-based, human. An outline of the steps:
as §1

Where [3] appears, read: HTRF phospho-AKT(S473), T47D (PI3Kα-H1047R) cells.
Where [4] appears, read: HTRF phospho-AKT(S473), SKBR3 (PI3Kα-Wild Type) cells.
The mark [5] stands for this setting: T47D (PI3Kα-H1047R) cells, HTRF phospho-AKT(S473).
Where [6] appears, read: SKBR3 (PI3Kα-Wild Type) cells, HTRF phospho-AKT(S473).

SMILES strings stand for the structures.

Regarding `Cc1cc([C@@H](C)Nc2ccc(Cl)nc2C(=O)NS(C)(=O)=O)c2nc(N3[C@@H]4CC[C@H]3C[C@@H](n3cc(C)cn3)C4)n(C)c(=O)c2c1` [Compound 482, 6-chloro-3-(((R)-1-(3,6-dimethyl-2-((1R,3R,5S)-3-(4-methyl-1H-pyrazol-1-yl)-8-azabicyclo[3.2.1]octan-8-yl)-4-oxo-3,4-dihydroquinazolin-8-yl)ethyl)amino)-N-(methylsulfonyl) picolinamide], the IC50 is less than 0.25 µM in experiment [1] (setting [3]) and 1 to 5 µM in experiment [2] (setting [4]).

Regarding `Cc1cc([C@@H](C)Nc2ccc(Cl)nc2C(=O)NS(C)(=O)=O)c2nc(N3C[C@@H]4[C@H](C3)[C@H]4c3ccc(C#N)cn3)n(C)c(=O)c2c1` [Compound 392, 6-chloro-3-(((R)-1-(2-((1R,5S,6R)-6-(5-cyanopyridin-2-yl)-3-azabicyclo[3.1.0]hexan-3-yl)-3,6-dimethyl-4-oxo-3,4-dihydroquinazolin-8-yl)ethyl)amino)-N-(methylsulfonyl) picolinamide], the figures for the IC50 in experiment [1] (setting [5]) and in experiment [2] (setting [6]) were 0.25 to 0.5 µM and 1 to 5 µM, respectively.

As to `Cc1cc([C@@H](C)Nc2ccc(Cl)nc2C(=O)NS(C)(=O)=O)c2nc(N3CCN(c4ccc(C#N)cc4)CC3)n(C)c(=O)c2c1` [Compound 190, (R)-6-chloro-3-((1-(2-(4-(4-cyanophenyl)piperazin-1-yl)-3,6-dimethyl-4-oxo-3,4-dihydroquinazolin-8-yl)ethyl)amino)-N-(methylsulfonyl) picolinamide], the IC50 in experiment [1] (setting [5]) is less than 0.25 µM; in experiment [2] (setting [6]) it was 1 to 5 µM.

Turning to `Cc1cc([C@@H](C)Nc2ccc(Cl)nc2C(=O)NS(C)(=O)=O)c2nc(N3CCC[C@H](c4cnc(C)c(C#N)c4)C3)n(C)c(=O)c2c1` (relative stereo) [Compound 615, 6-chloro-3-(((R)-1-(2-((R*)-3-(5-cyano-6-methylpyridin-3-yl)piperidin-1-yl)-3,6-dimethyl-4-oxo-3,4-dihydroquinazolin-8-yl)ethyl)amino)-N-(methylsulfonyl) picolinamide], the 50% inhibitory concentration (IC50) in experiment [1] (setting [3]) was 0.25 to 0.5 µM; in experiment [2] (setting [4]), 1 to 5 µM.

Regarding `Cc1cc([C@@H](C)Nc2ccc(Cl)nc2C(=O)NS(C)(=O)=O)c2nc(N3Cc4cnc(C)nc4C3)n(C)c(=O)c2c1` [Compound 612, (R)-6-chloro-3-((1-(3,6-dimethyl-2-(2-methyl-5,7-dihydro-6H-pyrrolo[3,4-d]pyrimidin-6-yl)-4-oxo-3,4-dihydroquinazolin-8-yl)ethyl)amino)-N-(methylsulfonyl) picolinamide], the IC50 in experiment [1] (setting [3]) lay within 0.25 to 0.5 µM; in experiment [2] (setting [4]), 1 to 5 µM.

Consider `Cc1cc([C@@H](C)Nc2ccc(Cl)nc2C(=O)NS(C)(=O)=O)c2nc(N3CC[C@@H](c4ccccc4)C3)n(C)c(=O)c2c1` [Compound 687, 6-chloro-3-(((R)-1-(3,6-dimethyl-4-oxo-2-((S)-3-phenylpyrrolidin-1-yl)-3,4-dihydroquinazolin-8-yl)ethyl)amino)-N-(methylsulfonyl) picolinamide], for which the IC50 in experiment [1] (setting [3]) is 0.25 to 0.5 µM; in experiment [2] (setting [4]) it was no less than 5 µM.

For the compound `Cc1ccc(C2CCN(c3nc4c([C@@H](C)Nc5ccc(Cl)nc5C(=O)NS(C)(=O)=O)cc(F)cc4c(=O)n3C)CC2)cn1` [Compound 365, (R)-6-chloro-3-((1-(6-fluoro-3-methyl-2-(4-(6-methylpyridin-3-yl)piperidin-1-yl)-4-oxo-3,4-dihydroquinazolin-8-yl)ethyl)amino)-N-(methylsulfonyl) picolinamide], the IC50 is less than 0.25 µM in experiment [1] (setting [5]) and 1 to 5 µM in experiment [2] (setting [6]).

Consider `Cc1cc([C@@H](C)Nc2ccc(Cl)nc2C(=O)NS(C)(=O)=O)c2nc(N3CCC(c4ccnn4C(F)(F)F)CC3)n(C)c(=O)c2c1` [Compound 446, (R)-6-chloro-3-((1-(3,6-dimethyl-4-oxo-2-(4-(1-(trifluoromethyl)-1H-pyrazol-5-yl)piperidin-1-yl)-3,4-dihydroquinazolin-8-yl)ethyl)amino)-N-(methylsulfonyl) picolinamide], for which the IC50 was 0.25 to 0.5 µM in experiment [1] (setting [3]) and no less than 5 µM in experiment [2] (setting [4]).

Regarding `Cc1cc([C@@H](C)Nc2ccc(Cl)nc2C(=O)NS(C)(=O)=O)c2nc(N3CC[C@H](c4cnc(C)nc4)C3)n(C)c(=O)c2c1` (relative stereo) [Compound 658, 6-chloro-3-(((R)-1-(3,6-dimethyl-2-((R*)-3-(2-methylpyrimidin-5-yl)pyrrolidin-1-yl)-4-oxo-3,4-dihydroquinazolin-8-yl)ethyl)amino)-N-(methylsulfonyl) picolinamide], the IC50 was 0.5 to 1 µM in experiment [1] (setting [3]) and no less than 5 µM in experiment [2] (setting [4]).

Consider `Cc1cc([C@@H](C)Nc2ccc(Cl)nc2C(=O)NS(C)(=O)=O)c2nc(N3CCC(c4nnc(C)o4)CC3)n(C)c(=O)c2c1` [Compound 557, (R)-6-chloro-3-((1-(3,6-dimethyl-2-(4-(5-methyl-1,3,4-oxadiazol-2-yl)piperidin-1-yl)-4-oxo-3,4-dihydroquinazolin-8-yl)ethyl)amino)-N-(methylsulfonyl) picolinamide], for which the IC50 in experiment [1] (setting [3]) was 0.25 to 0.5 µM; in experiment [2] (setting [4]), 1 to 5 µM.

Regarding `Cc1cc([C@@H](C)Nc2ccc(Cl)nc2C(=O)NS(C)(=O)=O)c2nc(N3CCC[C@@H](c4ncc(Cl)cn4)C3)n(C)c(=O)c2c1` (relative stereo) [Compound 588, 6-chloro-3-(((R)-1-(2-((R*)-3-(5-chloropyrimidin-2-yl)piperidin-1-yl)-3,6-dimethyl-4-oxo-3,4-dihydroquinazolin-8-yl)ethyl)amino)-N-(methylsulfonyl) picolinamide], the concentration for half-maximal inhibition (IC50) in experiment [1] (setting [3]) is 1 to 5 µM; in experiment [2] (setting [4]) it was no less than 5 µM.

On to `Cc1cc([C@@H](C)Nc2ccc(Cl)nc2C(=O)NS(C)(=O)=O)c2nc(-c3ccc4nn(C)cc4c3)n(C3CC3)c(=O)c2c1` [Compound 847, (R)-6-chloro-3-((1-(3-cyclopropyl-6-methyl-2-(2-methyl-2H-indazol-5-yl)-4-oxo-3,4-dihydroquinazolin-8-yl)ethyl)amino)-N-(methylsulfonyl) picolinamide], for which the half-maximal inhibitory concentration (IC50) in experiment [1] (T47D (PI3Kα-H1047R) cell line, phospho-AKT(S473) HTRF) was less than 0.25 µM; in experiment [2] (SKBR3 (PI3Kα-Wild Type) cell line, phospho-AKT(S473) HTRF) it was 1 to 5 µM.

Take `Cc1cc([C@@H](C)Nc2ccc(Cl)nc2C(=O)NS(C)(=O)=O)c2nc(N3CCN(c4nc(C(F)F)ncc4F)CC3)n(C)c(=O)c2c1` [Compound 772, (R)-6-chloro-3-((1-(2-(4-(2-(difluoromethyl)-5-fluoropyrimidin-4-yl)piperazin-1-yl)-3,6-dimethyl-4-oxo-3,4-dihydroquinazolin-8-yl)ethyl)amino)-N-(methylsulfonyl) picolinamide]: the half-maximal inhibitory concentration (IC50) was less than 0.25 µM in experiment [1] (setting [3]) and no less than 5 µM in experiment [2] (setting [4]).

On to `Cc1cc([C@@H](C)Nc2ccc(Cl)nc2C(=O)NS(C)(=O)=O)c2nc(N3CCC(c4c(C)cnn4C)CC3)n(C)c(=O)c2c1` [Compound 427, (R)-6-chloro-3-((1-(2-(4-(1,4-dimethyl-1H-pyrazol-5-yl)piperidin-1-yl)-3,6-dimethyl-4-oxo-3,4-dihydroquinazolin-8-yl)ethyl)amino)-N-(methylsulfonyl) picolinamide], for which the 50% inhibitory concentration (IC50) in experiment [1] (setting [5]) is less than 0.25 µM; in experiment [2] (setting [6]), 1 to 5 µM.

Take `Cc1cc([C@@H](C)Nc2ccc(Cl)nc2C(=O)NS(C)(=O)=O)c2nc(N3Cc4cn(C5COC5)nc4C3)n(C)c(=O)c2c1` [Compound 290, (R)-6-chloro-3-((1-(3,6-dimethyl-2-(2-(oxetan-3-yl)-2,6-dihydropyrrolo[3,4-c]pyrazol-5(4H)-yl)-4-oxo-3,4-dihydroquinazolin-8-yl)ethyl)amino)-N-(methylsulfonyl) picolinamide]: the IC50 was less than 0.25 µM in experiment [1] (setting [5]) and 1 to 5 µM in experiment [2] (setting [6]).

For the compound `Cc1cc([C@@H](C)Nc2ccc(Cl)nc2C(=O)NS(C)(=O)=O)c2nc(N3C[C@H]4C[C@@H]3CN4c3ccc(F)cn3)n(C)c(=O)c2c1` [Compound 602, 6-chloro-3-(((R)-1-(2-((1R,4R)-5-(5-fluoropyridin-2-yl)-2,5-diazabicyclo [2.2.1]heptan-2-yl)-3,6-dimethyl-4-oxo-3,4-dihydroquinazolin-8-yl)ethyl)amino)-N-(methylsulfonyl) picolinamide], the IC50 was 0.25 to 0.5 µM in experiment [1] (setting [3]) and no less than 5 µM in experiment [2] (setting [4]).

For the compound `Cc1cc([C@@H](C)Nc2ccc(Cl)nc2C(=O)NS(C)(=O)=O)c2nc(N3C[C@@H]4[C@H](C3)[C@H]4c3ccnn3C)n(C)c(=O)c2c1` [Compound 296, 6-chloro-3-(((R)-1-(3,6-dimethyl-2-((1R,5S,6R)-6-(1-methyl-1H-pyrazol-5-yl)-3-azabicyclo[3.1.0]hexan-3-yl)-4-oxo-3,4-dihydroquinazolin-8-yl)ethyl)amino)-N-(methylsulfonyl) picolinamide], the IC50 lay in the range of 0.25 to 0.5 µM in experiment [1] (setting [5]) and 1 to 5 µM in experiment [2] (setting [6]).

`COc1nc(C)cc(N2CCN(c3nc4c([C@@H](C)Nc5ccc(Cl)nc5C(=O)NS(C)(=O)=O)cc(C)cc4c(=O)n3C)CC2)n1` [Compound 729, (R)-6-chloro-3-((1-(2-(4-(2-methoxy-6-methylpyrimidin-4-yl)piperazin-1-yl)-3,6-dimethyl-4-oxo-3,4-dihydroquinazolin-8-yl)ethyl)amino)-N-(methylsulfonyl) picolinamide]: the concentration for half-maximal inhibition (IC50) in experiment [1] (setting [3]) was 0.25 to 0.5 µM; in experiment [2] (setting [4]) it was 1 to 5 µM.

The IC50 is the midpoint of a concentration-inhibition curve. Read a low IC50 as higher potency.
